Measurements as given in the NIST ThermoML archive (doi:10.1016/j.fluid.2005.06.028).
± gives the expanded uncertainty stated by the source.

Assay: Solid-liquid equilibrium temperature

Solid-liquid equilibrium temperature (100 kPa, Crystal 1) [K]	Solid-liquid equilibrium temperature (20000 kPa, Crystal 1) [K]	Solid-liquid equilibrium temperature (40000 kPa, Crystal 1) [K]	Solid-liquid equilibrium temperature (60000 kPa, Crystal 1) [K]	Solid-liquid equilibrium temperature (80000 kPa, Crystal 1) [K]	Solid-liquid equilibrium temperature (100000 kPa, Crystal 1) [K]	Solid-liquid equilibrium temperature (100 kPa, Crystal) [K]	Solid-liquid equilibrium temperature (20000 kPa, Crystal) [K]	Solid-liquid equilibrium temperature (40000 kPa, Crystal) [K]	Solid-liquid equilibrium temperature (60000 kPa, Crystal) [K]	Solid-liquid equilibrium temperature (80000 kPa, Crystal) [K]	Solid-liquid equilibrium temperature (100000 kPa, Crystal) [K]	Compound
291.5 ± 0.9	296 ± 0.9	300.4 ± 0.9	304.8 ± 0.9	309.7 ± 0.9	313.5 ± 0.9	–	–	–	–	–	–	CCCCCCCCCCCCCCCC [hexadecane]
–	–	–	–	–	–	283.2 ± 0.9	287.8 ± 0.9	291.9 ± 0.9	296.2 ± 0.9	300.1 ± 0.9	303.9 ± 0.9	CCCCCCCCCCCCCCC [pentadecane]
–	–	–	–	–	–	279.2 ± 0.9	284.2 ± 0.9	289.1 ± 0.9	293.8 ± 0.9	297.9 ± 0.9	301.7 ± 0.9	CCCCCCCCCCCCCC [tetradecane]
